Experiments:
Human FAAH = target: T1, Human FAAH (Homo sapiens, UniProt O00519); test: Assay Method 1: FAAH assay, hydrolysis of 3H-anandamide by cell homogenate; type: biochemical; details: T84 or transfected SK-N-MC cell homogenate, 3H-AEA 80 nM, rt 1 h, average of results obtained
T1 construct: expressed in transfected cells; alternatively T84 frozen cell pellets
T1 sequence (O00519 1-579): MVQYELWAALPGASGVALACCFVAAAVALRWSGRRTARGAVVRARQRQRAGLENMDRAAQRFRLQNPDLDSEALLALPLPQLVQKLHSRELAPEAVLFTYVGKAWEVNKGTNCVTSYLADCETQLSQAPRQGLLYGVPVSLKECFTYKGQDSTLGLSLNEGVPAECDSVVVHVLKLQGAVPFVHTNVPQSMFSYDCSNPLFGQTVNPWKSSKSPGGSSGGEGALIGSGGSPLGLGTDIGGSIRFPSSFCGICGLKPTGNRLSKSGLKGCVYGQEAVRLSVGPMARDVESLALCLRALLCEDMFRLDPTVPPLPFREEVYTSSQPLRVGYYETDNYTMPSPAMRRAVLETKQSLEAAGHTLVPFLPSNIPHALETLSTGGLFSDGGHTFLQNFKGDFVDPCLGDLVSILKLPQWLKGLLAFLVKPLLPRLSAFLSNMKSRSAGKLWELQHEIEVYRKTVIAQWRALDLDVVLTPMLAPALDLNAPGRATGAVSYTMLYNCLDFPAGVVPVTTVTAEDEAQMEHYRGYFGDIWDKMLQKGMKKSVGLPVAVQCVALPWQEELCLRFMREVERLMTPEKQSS
Protocol: A. Transfection of Cells with Human FAAH
(§1) A 10-cm tissue culture dish with a confluent monolayer of SK-N-MC cells was split 2 days (d) prior to transfection. Using sterile technique, the media was removed and the cells were detached from the dish by the addition of trypsin. One fifth of the cells were then placed onto a new 10-cm dish. Cells were grown in a 37° C. incubator with 5% CO2 in Minimal Essential Media Eagle with 10% Fetal Bovine Serum. After 2 d, cells were approximately 80% confluent. These cells were removed from the dish with trypsin and pelleted in a clinical centrifuge. The pellet was re-suspended in 400 μL complete media and transferred to an electroporation cuvette with a 0.4 cm gap between the electrodes. Supercoiled human FAAH cDNA (1 μg) was added to the cells and mixed. The voltage for the electroporation was set at 0.25 kV, and the capacitance was set at 960 μF. After electroporation, the cells were diluted into complete media (10 mL) and plated onto four 10-cm dishes. Because of the variability in the efficiency of electroporation, four different concentrations of cells were plated. The ratios used were 1:20, 1:10, and 1:5, with the remainder of the cells being added to the fourth dish. The cells were allowed to recover for 24 h before adding the selection media (complete media with 600 μg/mL G418). After 10 d, dishes were analyzed for surviving colonies of cells. Dishes with well-isolated colonies were used. Cells from individual colonies were isolated and tested.
(§2) T84 frozen cell pellets or transfected SK-N-MC cells (contents of 1×15 cm culture dishes) were homogenized in 50 mL of FAAH assay buffer (125 mM Tris, 1 mM EDTA, 0.2% Glycerol, 0.02% Triton X-100, 0.4 mM Hepes, pH 9). The assay mixture consisted of 50 μL of the cell homogenate, 10 μL of the test compound, and 40 μL of anandamide [1-^3H-ethanolamine] (^3H-AEA, Perkin-Elmer, 10.3 Ci/mmol), which was added last, for a final tracer concentration of 80 nM. The reaction mixture was incubated at rt for 1 h. During the incubation, 96-well Multiscreen filter plates (catalog number MAFCNOB50; Millipore, Bedford, Mass., USA) were loaded with 25 μL of activated charcoal (Multiscreen column loader, catalog number MACL09625, Millipore) and washed once with 100 μL of MeOH. Also during the incubation, 96-well DYNEX MicroLite plates (catalog number NL510410) were loaded with 100 μL of MicroScint40 (catalog number 6013641, Packard Bioscience, Meriden, Conn., USA). After the 1 h incubation, 60 μL of the reaction mixture were transferred to the charcoal plates, which were then assembled on top of the DYNEX plates using
Centrifuge Alignment Frames (catalog number MACF09604, Millipore). The unbound labeled ethanolamine was centrifuged through to the bottom plate (5 min at 2000 rpm), which was preloaded with the scintillant, as described above. The plates were sealed and left at rt for 1 h before counting on a Hewlett Packard TopCount.
(§3) Results for compounds tested in these assays are summarized in Table 1, as an average of results obtained. Compounds were tested in free base, hydrochloride salt, and/or trifluoroacetic acid salt forms. Where activity is shown as greater than (>) a particular value, the value is the solubility limit of the compound in the assay medium or the highest concentration tested in the assay.

Rat FAAH = target: T2, Rat FAAH (Rattus norvegicus, UniProt P97612); test: Assay Method 2: FAAH assay, hydrolysis of 3H-anandamide by cell homogenate; type: biochemical; details: T84 or transfected SK-N-MC cell homogenate, 3H-AEA 80 nM, rt 1 h, average of results obtained
T2 construct: expressed in transfected cells
T2 sequence (P97612 1-579): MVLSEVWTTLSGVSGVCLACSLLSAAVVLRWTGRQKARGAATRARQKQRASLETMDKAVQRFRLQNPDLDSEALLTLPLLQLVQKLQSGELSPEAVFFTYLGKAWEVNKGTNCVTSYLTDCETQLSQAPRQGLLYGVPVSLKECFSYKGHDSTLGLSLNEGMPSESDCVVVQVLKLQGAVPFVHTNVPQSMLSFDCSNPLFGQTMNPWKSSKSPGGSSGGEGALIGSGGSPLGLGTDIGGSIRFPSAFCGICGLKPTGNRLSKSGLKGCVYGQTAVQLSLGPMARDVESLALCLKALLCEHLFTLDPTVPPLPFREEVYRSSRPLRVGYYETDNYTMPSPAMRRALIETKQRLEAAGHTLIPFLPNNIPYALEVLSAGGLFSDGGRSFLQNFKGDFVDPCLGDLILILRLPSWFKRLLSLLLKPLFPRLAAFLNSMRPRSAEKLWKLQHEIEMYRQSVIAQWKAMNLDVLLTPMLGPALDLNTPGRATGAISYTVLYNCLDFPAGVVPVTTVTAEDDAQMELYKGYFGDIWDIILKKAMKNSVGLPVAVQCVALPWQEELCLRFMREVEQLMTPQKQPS
Protocol: A. Transfection of Cells with Rat FAAH
as §1, with “rat” for “human”, “[…]” for “960 μF.”
as §2, with “25” for “25 μL”, “using Centrifuge Alignment Frames (catalog number MACF09604, Millipore). The unbound labeled ethanolamine was centrifuged through to the bottom plate (5 min at 2000 rpm), which was preloaded with the scintillant, as described above. The plates were sealed and left at rt for 1 h before counting on a Hewlett Packard TopCount.” for “using”
as §3

IC50 (Human FAAH) | IC50 (Rat FAAH) | Structure (SMILES)
7000 nM | 9000 nM | O=C(Nc1ccon1)N1CCCC(Cc2cccc(C(F)(F)F)c2)C1 (stereo not drawn) [Example 9, N-Isoxazol-3-yl-3-{[3-(trifluoromethyl)phenyl]methyl}piperidine-1-carboxamide]
56 nM | 7 nM | O=C(Nc1cnc2cccnn12)N1CCCC(Cc2cccc(Oc3ccc(F)cc3)c2)C1 (stereo not drawn) [Example 12, 3-[3-(4-Fluoro-phenoxy)-benzyl]-piperidine-1-carboxylic acid imidazo[1,2-b]pyridazin-3-ylamide]
8000 nM | 10000 nM | O=C(Nc1ccncn1)N1CCCC(Cc2cccc(C(F)(F)F)c2)C1 (stereo not drawn) [Example 3, N-Pyrimidin-4-yl-3-{[3-(trifluoromethyl)phenyl]methyl}piperidine-1-carboxamide]
73 nM | 27 nM | O=C(Nc1cccnc1)N1CCCC(Cc2cccc(Oc3ccc(Cl)cc3)c2)C1 (single isomer, unassigned; (-)) [Example 14, (−)-3-[3-(4-Chloro-phenoxy)-benzyl]-piperidine-1-carboxylic acid pyridin-3-ylamide]
11 nM | 17 nM | O=C(Nc1cccnc1)N1CCCC(Cc2cccc(Oc3ccc(OC(F)(F)F)cc3)c2)C1 (stereo not drawn) [Example 15, 3-[3-(4-Trifluoromethoxy-phenoxy)-benzyl]-piperidine-1-carboxylic acid pyridine-3-ylamide]
430 nM | 1600 nM | O=C(Nc1cccnc1)N1CCCC(Cc2ccc(OC(F)(F)F)cc2)C1 (stereo not drawn) [Example 19, 3-(4-Trifluoromethoxy-benzyl)-piperidine-1-carboxylic acid pyridin-3-ylamide]
48 nM | 180 nM | O=C(Nc1cccnc1)N1CCCC(Cc2ccc(Cl)c(Cl)c2)C1 (stereo not drawn) [Example 17, 3-(3,4-Dichloro-benzyl)-piperidine-1-carboxylic acid pyridin-3-ylamide]
1000 nM | > 10000 nM | O=C(Nc1cccnc1)N1CCCC(Cc2cnc3ccccc3c2)C1 (stereo not drawn) [Example 16, 3-Quinolin-3-ylmethyl-piperidine-1-carboxylic acid pyridin-3-ylamide]
2000 nM | 183 nM | O=C(Nc1noc2ccccc12)N1CCCC(Cc2ccc(C(F)(F)F)cc2)C1 (stereo not drawn) [Example 5, N-1,2-Benzisoxazol-3-yl-3-{[4-(trifluoromethyl)-phenyl]-methyl}-piperidine-1-carboxamide]
2000 nM | 152 nM | O=C(Nc1noc2ccccc12)N1CCCC(Cc2ccc(F)cc2)C1 (stereo not drawn) [Example 7, N-1,2-Benzisoxazol-3-yl-3-[(4-fluorophenyl)methyl]piperidine-1-carboxamide]
190 nM | 450 nM | O=C(Nc1cccnc1)N1CCCC(Cc2cccc(OC(F)(F)F)c2)C1 (stereo not drawn) [Example 18, 3-(3-Trifluoromethoxy-benzyl)-piperidine-1-carboxylic acid pyridin-3-ylamide]
410 nM | 604 nM | O=C(Nc1cccnc1)N1CCCC(Cc2ccc3c(c2)OC(F)(F)O3)C1 (stereo not drawn) [Example 1, 3-(2,2-Difluoro-benzo[1,3]dioxol-5-ylmethyl)-piperidine-1-carboxylic acid pyridin-3-ylamide]
19 nM | 31 nM | O=C(Nc1cccnc1)N1CCCC(Cc2cccc(Oc3ccc(Cl)cc3)c2)C1 (single isomer, unassigned; (+)) [Example 13, (+)-3-[3-(4-Chloro-phenoxy)-benzyl]-piperidine-1-carboxylic acid pyridin-3-ylamide]
10000 nM | > 10000 nM | O=C(Nc1ccon1)N1CCCC(Cc2ccc(C(F)(F)F)cc2)C1 (stereo not drawn) [Example 8, N-Isoxazol-3-yl-3-{[4-(trifluoromethyl)phenyl]methyl}piperidine-1-carboxamide]
87 nM | 8 nM | O=C(Nc1cnccc1Cl)N1CCCC(Cc2cccc(Oc3ccc(F)cc3)c2)C1 (stereo not drawn) [Example 11, 3-[3-(4-Fluoro-phenoxy)-benzyl]-piperidine-1-carboxylic acid (4-chloro-pyridin-3-yl)-amide]

— patent publication US8598356B2, “Heteroaryl-substituted urea modulators of fatty acid amide hydrolase” (Janssen Pharmaceutica NV, priority 2008, dated 2013)
